Values joined by “and” are separate entries in the source; they are usually repeats but may differ in a detail not shown here. Equal entries are not always repeated.
Key:
HIV-infected CD4 T cells = assay: PGT121 antibody-mediated killing of HIV-infected CD4 T cells, PBMC effector model; assay type: cell-based, human
Description: NK cells and monocytes mediate antibody-dependent cellular cytotoxicity (ADCC) and antibody-dependent cellular phagocytosis (ADCP) respectively. To assess the ability of the compound of Example 15 to enhance ADCC and ADCP, two models were developed using monocytes or PBMCs as effector cells and HIV-infected CD4 T cells as target cells. PBMCs were isolated from 3 healthy subjects' leukaphereses (AllCells, participant IDs A4593, A4596, A4606), as described above. CD4 T cells were isolated from PBMCs using negative selection magnetic beads (EasySep, StemCell Technologies). CD4 T cells were spinfected with HIV-1 isolate 92HT593 (NIH AIDS Reagent Program) and cultured for 5 days at 37° C. For the PBMC model, autologous PBMCs were cultured for 5 days with vehicle control (DMSO) or Example 15 at 100 or 1000 nM. […] Marker staining was measured by flow cytometry using a LSR Fortessa (BD Biosciences) and analyzed with FlowJo software (TreeStar). The percent killing was determined by calculating the reduction of p24+ CD4+ T cells mediated by PGT121 antibody relative to a no antibody control.
PBMCs (FIG. 3) or monocytes (FIG. 4) were treated with DMSO or TLR8 agonist for 5 days (FIG. 3) or 1 day (FIG. 4) and then co-cultured for 1 day with autologous HIV-infected CD4 T cells−/+anti-HIV Env antibody PGT121. Reductions in % p24+ CD4+ T cells, relative to no antibody control, were measured by FACS. […]

[1] = system: HIV-1 expression in PBMC cultures from HIV-1 infected subjects on cART; assay: Induced HIV-1 expression in PBMC cultures from HIV-1 infected subjects on cART (HIV-1 RNA in culture supernatant, COBAS TaqMan); assay type: cell-based, human; settings: for Fold HIV-1 Activation, Geometric Mean with ≧2-Fold-Activation / Fold HIV-1 Activation, Range with ≧2-Fold-Activation: N = 12 subjects
Experimental: In some experiments, IL-15, the TLR8 modulating compound of Example 15 or the combination of IL-15 and Example 15 were used at the indicated concentrations (Table 4). The cultures were maintained in the presence of antivirals (elvitegravir and efavirenz at 100 nM each) to prevent viral spread and amplification in order to measure the quantity of virus produced (latency reversal) by the TLR8 modulating compounds. At the end of the incubation period, cell-free culture supernatants were harvested and HIV-1 RNA levels were quantified by the COBAS® AmpliPrep/COBAS®TaqMan HIV-1 Test, v2.0 (Roche).
In each table, fold-activation is calculated as a ratio of HIV-1 RNA copies per ml of cell culture supernatants from TLR8 agonist treated samples and DMSO treated controls. Geometric mean fold-activation from three independent incubation samples for each condition of each subject's PBMCs.
To assess if the latency reversal induced by TLR8 agonism could further potentiate latency reversal by a separate mechanisms, we treated cells as described above with IL-15, Example 15, or a combination of IL-15 and Example 15 (Table 4).

[2] = Example 15 1000 nM and/or IL-15 1 nM, subjects 205-210

## CCCC[C@H](CO)Nc1nc(N)nc2cccnc12 [Example 15]
HIV-infected CD4 T cells; PBMCs from 3 subjects pre-treated 5 days at 100 nM, 108 for the DMSO control
  PGT121-mediated killing of HIV-infected CD4+ T cells, geometric mean area under the curve (AUC): 172
HIV-infected CD4 T cells; PBMCs from 3 subjects, 100 nM
  Increase of AUC of PGT121-mediated killing compared to DMSO control: 60%
[1]; 10 nM
  Fold HIV-1 Activation, Geometric Mean with ≧2-Fold-Activation: 4.6 fold
  Fold HIV-1 Activation, Range with ≧2-Fold-Activation: 2.2-20.1 fold
[1]; 10 nM, subjects 172-183
  N with ≧2-Fold-Activation (%): (42) %
[1]; 100 nM
  Fold HIV-1 Activation, Geometric Mean with ≧2-Fold-Activation: 4.8 fold
  Fold HIV-1 Activation, Range with ≧2-Fold-Activation: 2.2-10.1 fold
[1]; 100 nM, subjects 172-183
  N with ≧2-Fold-Activation (%): (33) %
[1]; 1,000 nM
  Fold HIV-1 Activation, Geometric Mean with ≧2-Fold-Activation: 3.4 fold
  Fold HIV-1 Activation, Range with ≧2-Fold-Activation: 2.4-5.7 fold
[1]; 1,000 nM, subjects 172-183
  N with ≧2-Fold-Activation (%): (58) %
[1]; 10, 100, or 1000 nM
  Fold HIV-1 Activation, Geometric Mean with ≧2-Fold-Activation: 4.4 fold
  Fold HIV-1 Activation, Range with ≧2-Fold-Activation: 2.2-20.1 fold
[1]; Example 15 10 nM, 4 days, individual subjects 172-183, vs DMSO
  Fold HIV-1 Activation: 2.6 fold and 2.2 fold and 4.7 fold and 1.2 fold and 1.9 fold and 1.3 fold and 0.3 fold and 0.5 fold and 1.0 fold and 4.1 fold and 20.1 fold and 0.8 fold
[1]; Example 15 100 nM, 4 days, individual subjects 172-183, vs DMSO
  Fold HIV-1 Activation: 3.8 fold and 6.6 fold and 2.2 fold and 1.5 fold and 1.0 fold and 0.5 fold and 0.2 fold and 0.1 fold and 0.7 fold and 1.8 fold and 10.1 fold and 1.3 fold
[1]; Example 15 1000 nM and/or IL-15 1 nM, N = 6 subjects
  Fold HIV-1 Activation, Geometric Mean: 2.1 fold
[1]; Example 15 1000 nM and/or IL-15 1 nM, individual subjects 205-210, vs DMSO
  Fold HIV-1 Activation: 4.7 fold and 0.8 fold and 9.7 fold and 2.0 fold and 1.9 fold and 0.6 fold
[1]; [2]
  N with ≧2-Fold-Activation: 3 of 6
  N with ≧2-Fold-Activation (%): 50%
[1]; Example 15 1,000 nM, 4 days, individual subjects 172-183, vs DMSO
  Fold HIV-1 Activation: 2.7 fold and 2.4 fold and 3.3 fold and 1.2 fold and 4.7 fold and 0.3 fold (2×) and 3.4 fold and 3.0 fold and 1.3 fold and 1.6 fold and 5.7 fold
